A word on the pIC50: it is the IC50 on a negative log10 scale, so that one unit is a factor of ten.

pIC50: −log10 of the molar value.

Sequence of truncated form of human NaV 1.8 with full channel activity (Q9Y5Y9 126-1722 limits assumed): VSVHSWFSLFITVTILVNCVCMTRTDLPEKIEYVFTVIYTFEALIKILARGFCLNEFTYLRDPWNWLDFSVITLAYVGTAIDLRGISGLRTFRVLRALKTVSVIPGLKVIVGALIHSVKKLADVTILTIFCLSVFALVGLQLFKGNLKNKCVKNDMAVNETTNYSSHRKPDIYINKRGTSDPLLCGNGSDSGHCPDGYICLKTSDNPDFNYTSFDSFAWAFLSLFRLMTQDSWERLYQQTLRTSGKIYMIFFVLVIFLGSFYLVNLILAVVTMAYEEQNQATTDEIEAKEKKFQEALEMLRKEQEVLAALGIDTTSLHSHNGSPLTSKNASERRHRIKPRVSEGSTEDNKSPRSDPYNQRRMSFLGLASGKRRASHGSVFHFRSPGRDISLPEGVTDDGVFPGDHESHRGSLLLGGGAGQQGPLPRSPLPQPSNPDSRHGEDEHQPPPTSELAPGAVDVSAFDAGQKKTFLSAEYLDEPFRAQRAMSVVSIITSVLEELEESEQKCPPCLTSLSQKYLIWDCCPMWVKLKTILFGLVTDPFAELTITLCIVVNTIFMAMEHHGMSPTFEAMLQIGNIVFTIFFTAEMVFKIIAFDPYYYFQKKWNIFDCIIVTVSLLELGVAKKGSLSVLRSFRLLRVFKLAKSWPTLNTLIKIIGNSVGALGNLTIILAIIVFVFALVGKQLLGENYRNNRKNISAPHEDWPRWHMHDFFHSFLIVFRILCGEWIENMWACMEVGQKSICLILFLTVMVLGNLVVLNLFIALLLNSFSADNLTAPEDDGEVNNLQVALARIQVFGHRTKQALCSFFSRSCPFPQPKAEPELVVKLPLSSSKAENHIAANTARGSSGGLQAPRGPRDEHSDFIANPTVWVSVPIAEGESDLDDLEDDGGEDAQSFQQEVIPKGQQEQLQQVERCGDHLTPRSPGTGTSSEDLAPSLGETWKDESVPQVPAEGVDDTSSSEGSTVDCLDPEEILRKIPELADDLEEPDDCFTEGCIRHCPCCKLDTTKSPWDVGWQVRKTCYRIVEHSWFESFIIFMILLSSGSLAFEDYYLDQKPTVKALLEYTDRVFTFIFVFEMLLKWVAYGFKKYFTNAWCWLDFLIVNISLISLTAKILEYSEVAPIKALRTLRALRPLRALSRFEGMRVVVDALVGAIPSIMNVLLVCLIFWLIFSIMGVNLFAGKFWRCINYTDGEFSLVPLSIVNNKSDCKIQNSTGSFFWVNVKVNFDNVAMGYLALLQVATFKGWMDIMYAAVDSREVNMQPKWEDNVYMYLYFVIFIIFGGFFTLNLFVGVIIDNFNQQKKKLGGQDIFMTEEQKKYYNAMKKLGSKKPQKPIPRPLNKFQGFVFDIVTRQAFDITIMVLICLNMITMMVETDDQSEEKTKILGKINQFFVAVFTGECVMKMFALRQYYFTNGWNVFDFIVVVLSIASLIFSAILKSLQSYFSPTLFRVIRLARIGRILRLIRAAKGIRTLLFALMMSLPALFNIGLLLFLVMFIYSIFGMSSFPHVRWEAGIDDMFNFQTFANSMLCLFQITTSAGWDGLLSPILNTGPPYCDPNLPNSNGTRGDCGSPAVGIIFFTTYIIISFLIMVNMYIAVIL

One experiment concerns the target truncated form of human NaV 1.8 with full channel activity (Homo sapiens, UniProt Q9Y5Y9). The experiment can be described thus: E-VIPR Assay Method A for detecting and measuring Nav inhibition (HEK cells, membrane potential FRET dyes, electrical stimulation). Type of experiment: cell-based. The note with it: HEK cells expressing human NaV 1.8, HS (human serum) in compound loading buffer, 11 point dose response, top dose 3 μM, Table 20, read-out: Nav 1.8 MedChem Optical Assay EVIPR Assay Method A HS IC50. An excerpt: E-VIPR Assay Method A for Detecting and Measuring Nav Inhibition Properties Sodium ion channels are voltage-dependent proteins that can be activated by inducing membrane voltage changes by applying electric fields. The electrical stimulation instrument and methods of use, referred to as E-VIPR, are described in International Publication No. WO 2002/008748 A3 and C.-J. Huang et al. Characterization of voltage-gated sodium channel blockers by electrical stimulation and fluorescence detection of membrane potential, 24 Nature Biotech. 439-46 (2006), both of which are incorporated by reference in their entirety. The instrument comprises a microtiter plate handler, an optical system for exciting the coumarin dye while simultaneously recording the coumarin and oxonol emissions, a waveform generator, a current- or voltage-controlled amplifier, and parallel electrode pairs that are inserted into assay plate wells. Under integrated computer control, this instrument passes user-programmed electrical stimulus protocols to cells within the wells of the microtiter plate. […] Sigma #F4135), 1% NEAA (Non-Essential Amino Acids, Life Tech #11140), 1% HEPES (Life Tech #15630), 1% Pen-Strep (Penicillin-Streptomycin; […] Cells were expanded in vented cap flasks, with 95% humidity and 5% CO2. Reagents and Stock Solutions: • 100 mg/mL Pluronic F-127 (Sigma #P2443), in dry DMSO • Compound Plates: […] 5% KIR 2.1 Bacmam virus (produced in-house), prepared as described in Section 3.3 of J. A. […] The solution was made by adding 10% Pluronic F127 stock equal to combined volumes of CC2-DMPE and DiSBAC6(3). The order of preparation was first mix Pluronic and CC2-DMPE, then add DiSBAC6(3), then while vortexing add Bath1/β-Cyclodextrin. […] Assay Protocol: […] Final DMSO concentration for all wells in the assay was 0.625% (0.75% DMSO was supplemented to the Compound Loading Buffer for a final DMSO concentration of 0.625%). […] 3) Cell plates were prepared. On the day of the assay, the media was aspirated, and the cells were washed three times with 80 μL of Bath-1 buffer, maintaining 25 μL residual volume in each well. 4) 25 μL per well of Hexyl Dye Solution was dispensed into the cell plates. The cells were incubated for 20 minutes at room temp or ambient conditions in darkness. 5) 80 μL per well of Compound Loading Buffer was dispensed into compound plates. 6) The cell plates were washed three times with 80 μL per well of Bath-1 Buffer, leaving 25 µL of residual volume. Then 25 uL per well from compound plate was transferred to each cell plate. The mixture was incubated for 30 minutes at room temp/ambient conditions. 7) The plate was read on E-VIPR using the current-controlled amplifier to deliver stimulation wave pulses using the following protocol: 1.25 Amps, 2.5 ms pulse width biphasic waveform, 10 Hz for 10 seconds at a scan rate of 200 Hz. A pre-stimulus recording was performed for 0.5 seconds to obtain the un-stimulated intensities baseline. The stimulatory waveform was followed by 0.5 seconds of post-stimulation recording to examine the relaxation to the resting state. Data Analysis: Data were analyzed and reported as normalized ratios of emission intensities measured in the 460 nm and 580 nm channels. The response as a function of time was reported as the ratios obtained using the following formula: […] The data were further reduced by calculating the initial (Ri) and final (Rf) ratios. These were the average ratio values during part or all of the pre-stimulation period and during sample points during the stimulation period. The fluorescence ratio (Rf/Ri) was then calculated and reported as a function of time. Control responses were obtained by performing assays in the presence of the positive control, and in the absence of pharmacological agents (DMSO vehicle negative control). Responses to the negative (N) and positive (P) controls were calculated as above. The compound antagonist % activity A was then defined as: [formula] where X is the ratio response of the test compound. […]
As to `COc1cc(OC(F)(F)F)ccc1Oc1ccc(C(F)(F)F)c(F)c1C(=O)Nc1ccc(C(N)=O)c(F)c1` [Compound 16, N-(4-carbamoyl-3-fluoro-phenyl)-2-fluoro-6-[2-methoxy-4-(trifluoromethoxy)phenoxy]-3-(trifluoromethyl)benzamide], the pIC50 is 8.15.
`COc1cc(OC(F)(F)F)ccc1Oc1cnc(C(F)(F)F)c(F)c1C(=O)Nc1ccnc(C(N)=O)c1` [Compound 12, N-(2-Carbamoyl-4-pyridyl)-3-fluoro-5-[2-methoxy-4-(trifluoromethoxy)phenoxy]-2-(trifluoromethyl)pyridine-4-carboxamide]: the negative-log IC50 (pIC50) is 8.40.
As for `[2H]C([2H])([2H])Oc1cc(OC(F)(F)F)ccc1Oc1ccc(OC(F)(F)F)c(F)c1C(=O)Nc1ccnc(C(N)=O)c1` [Compound 8, 4-[[2-fluoro-6-[2-(trideuteriomethoxy)-4-(trifluoromethoxy)phenoxy]-3-(trifluoromethoxy)benzoyl]amino]pyridine-2-carboxamide], the negative logarithm of the IC50 (pIC50) was 8.52.
Still for that read-out and setting: under `COc1cc(OC(F)(F)F)ccc1Oc1ccc(C(F)(F)F)c(F)c1C(=O)Nc1ccnc(C(N)=O)c1` [Compound 4, 4-[[2-fluoro-6-[2-methoxy-4-(trifluoromethoxy)phenoxy]-3-(trifluoromethyl)benzoyl]amino]pyridine-2-carboxamide] stands 8.70.

Still in this experiment, the particulars now being: HEK cells expressing human NaV 1.8, HS (human serum) in compound loading buffer, 11 point dose response, top dose 3 μM, Table 20A, read-out: Nav 1.8 MedChem Optical Assay EVIPR Assay Method A HS IC50.
Turning to `COc1cc(OC(F)(F)F)ccc1Oc1cc(Cl)cc(F)c1C(=O)Nc1ccc(C(N)=O)nc1` [Compound 185, 5-[[4-Chloro-2-fluoro-6-[2-methoxy-4-(trifluoromethoxy)phenoxy]benzoyl]amino]pyridine-2-carboxamide], the pIC50 was 7.18.
The same measure, in the same setting: the same measure for `NC(=O)c1cc(NC(=O)c2c(Oc3ccc(OC(F)(F)F)cc3)cnc(C(F)(F)F)c2F)ccc1F` [Compound 62, N-(3-Carbamoyl-4-fluoro-phenyl)-3-fluoro-5-[4-(trifluoromethoxy)phenoxy]-2-(trifluoromethyl)pyridine-4-carboxamide]: 7.96.
On to `NC(=O)c1cc(NC(=O)c2c(Oc3ccc(OC(F)(F)F)cc3)ccc(C(F)(F)F)c2F)ccc1O` [Compound 85, N-(3-carbamoyl-4-hydroxy-phenyl)-2-fluoro-6-[4-(trifluoromethoxy)phenoxy]-3-(trifluoromethyl)benzamide], for which the pIC50 was 6.49.
On to `COc1cc(OC(F)(F)F)ccc1Oc1ccc(C(F)(F)F)c(F)c1C(=O)Nc1cc(C(N)=O)ncc1F` [Compound 123, 5-Fluoro-4-[[2-fluoro-6-[2-methoxy-4-(trifluoromethoxy)phenoxy]-3-(trifluoromethyl)benzoyl]amino]pyridine-2-carboxamide], for which the pIC50 is 8.30.
For the compound `NC(=O)c1cc(NC(=O)c2c(Oc3ccc(F)cc3OC(F)F)ccc(C(F)(F)F)c2F)ccn1` [Compound 208, 4-[[6-[2-(Difluoromethoxy)-4-fluoro-phenoxy]-2-fluoro-3-(trifluoromethyl)benzoyl]amino]pyridine-2-carboxamide], the negative logarithm of the IC50 (pIC50) is 7.89.
Same read-out and setting: the same measure for `NC(=O)c1cccc(NC(=O)c2c(Oc3ccc(OC(F)(F)F)cc3F)ccc(C(F)(F)F)c2F)c1` [Compound 89, N-(3-carbamoylphenyl)-2-fluoro-6-[2-fluoro-4-(trifluoromethoxy)phenoxy]-3-(trifluoromethyl)benzamide]: 7.36; for `[2H]C([2H])([2H])Oc1cc(OC(F)(F)F)ccc1Oc1cc(OC(F)F)cc(F)c1C(=O)Nc1ccc(C(N)=O)nc1` [Compound 174, 5-[[4-(Difluoromethoxy)-2-fluoro-6-[2-(trideuteriomethoxy)-4-(trifluoromethoxy)phenoxy]benzoyl]amino]pyridine-2-carboxamide]: 7.06.
On the same count and under the same terms, the same measure for `[2H]C([2H])([2H])Oc1c(Oc2cc(Cl)c(C([2H])([2H])[2H])c(F)c2C(=O)Nc2ccnc(C(N)=O)c2)ccc(OC(F)(F)F)c1F` [Compound 222, 4-[[4-Chloro-2-fluoro-6-[3-fluoro-2-(trideuteriomethoxy)-4-(trifluoromethoxy)phenoxy]-3-(trideuteriomethyl)benzoyl]amino]pyridine-2-carboxamide]: 8.52.
For `COc1cc(OC(F)(F)F)ccc1Oc1cnc(C(F)(F)F)c(F)c1C(=O)Nc1cc(C(N)=O)ncc1C` [Compound 143, N-(2-Carbamoyl-5-methyl-4-pyridyl)-3-fluoro-5-[2-methoxy-4-(trifluoromethoxy)phenoxy]-2-(trifluoromethyl)pyridine-4-carboxamide], the pIC50 is 8.00.
Still for that read-out and setting: the same measure for `COc1cc(OC(F)(F)F)ccc1Oc1ccc(Cl)cc1C(=O)Nc1cc(C(N)=O)ncc1C` [Compound 150, 4-[[5-Chloro-2-[2-methoxy-4-(trifluoromethoxy)phenoxy]benzoyl]amino]-5-methyl-pyridine-2-carboxamide]: 6.54.
The same measure, in the same setting: under `NC(=O)c1ccc(NC(=O)c2c(Oc3ccc(OC(F)(F)F)cc3)ccc3c2CCC3(F)F)cn1` [Compound 192, 5-[[1,1-Difluoro-5-[4-(trifluoromethoxy)phenoxy]indane-4-carbonyl]amino]pyridine-2-carboxamide] stands 6.38; under `NC(=O)c1cc(NC(=O)c2c(Oc3ccc(OC(F)(F)F)cc3)cc(OCc3ccccc3)c(C(F)(F)F)c2F)ccc1F` [Compound 215, 4-Benzyloxy-N-(3-carbamoyl-4-fluoro-phenyl)-2-fluoro-6-[4-(trifluoromethoxy)phenoxy]-3-(trifluoromethyl)benzamide], 7.74.
Still for that read-out and setting: the same measure for `NC(=O)c1cc(NC(=O)c2c(Oc3ccc(OC(F)(F)F)c(F)c3)ccc(OC(F)(F)F)c2F)ccn1` [Compound 241, 4-[[2-fluoro-6-[3-fluoro-4-(trifluoromethoxy)phenoxy]-3-(trifluoromethoxy)benzoyl]amino]pyridine-2-carboxamide]: 7.42.
Turning to `NC(=O)c1cc(NC(=O)c2c(Oc3ccc(OC(F)(F)F)cc3)ccc(Cl)c2F)ccn1` [Compound 70, 4-[[3-Chloro-2-fluoro-6-[4-(trifluoromethoxy)phenoxy]benzoyl]amino]pyridine-2-carboxamide], the negative logarithm of the IC50 (pIC50) is 7.28.
Regarding `[2H]C([2H])([2H])Oc1cc(OC(F)(F)F)ccc1Oc1cc(OC(F)(F)F)cc(F)c1C(=O)Nc1ccnc(C(N)=O)c1` [Compound 172, 4-[[2-Fluoro-6-[2-(trideuteriomethoxy)-4-(trifluoromethoxy)phenoxy]-4-(trifluoromethoxy)benzoyl]amino]pyridine-2-carboxamide], the negative logarithm of the IC50 (pIC50) was 7.92.
Take `NC(=O)c1cc(NC(=O)c2cc(C(F)(F)C(F)(F)F)ccc2Oc2ccc(OC(F)(F)F)cc2)ccc1F` [Compound 79, N-(3-Carbamoyl-4-fluoro-phenyl)-5-(1,1,2,2,2-pentafluoroethyl)-2-[4-(trifluoromethoxy)phenoxy]benzamide]: the pIC50 is 7.16.
Regarding `NC(=O)c1cc(NC(=O)c2c(Cl)cc(Cl)cc2Oc2ccc(F)cc2)ccn1` [Compound 177, 4-[[2,4-Dichloro-6-(4-fluorophenoxy)benzoyl]amino]pyridine-2-carboxamide], the negative logarithm of the IC50 (pIC50) was 6.34.
As to `NC(=O)c1cc(NC(=O)c2cnc(C3CC3)cc2Oc2ccc(OC(F)(F)F)c(Cl)c2)ccc1F` [Compound 36, N-(3-Carbamoyl-4-fluoro-phenyl)-4-[3-chloro-4-(trifluoromethoxy)phenoxy]-6-cyclopropyl-pyridine-3-carboxamide], the pIC50 is 6.67.
